Experimental data published in US5519024A, “Quinolonecarboxylic acid derivatives and their use” (Takeda Chemical Industries, Ltd., priority 1993, dated 1996).

Biological target: T1, GPIIb/IIIa (Homo sapiens, UniProt P05106+P08514)
T1 construct: Purification of GPIIb/IIIa from HEL cells; endogenous in cells; host or cells: HEL cells (HEL 92.1.7, ATCC TIB180); endogenous complex solubilized with Triton X-100 and purified in house
Assay: Inhibitory activity against binding of GPIIb/IIIa and fibrinogen
Settings: Table 2; for inhibition at 10 µM / inhibition at 1 µM: read-out: GPIIb/IIIa Fibrinogen Binding Inhibitory Activity
Method: Test Example 1: Inhibitory activity against binding of GPIIb/IIIa and fibrinogen
(1) Cultivation of human erythroleukemia-derived cell line (hereinafter referred to as HEL cells)
HEL cells (HEl92.1.7; ATCC No. TIB180) were purchased from ATCC (Rockville, Md., U.S.A.). The medium was RPMI medium (GIBCO Laboratories, Grand Island, N..Y, U.S.A.) containing 40 mM N-2-hydroxyethylpiperazine-N'-2-ethanesulfonic acid (hereinafter referred to as HEPES) (pH 7.0), 0.2% NaHCO3, 100 μg/ml kanamycin and 10% FCS. The cells were cultured in the presence of 5% CO2 at 37° C., with the medium replaced with a fresh medium to obtain a 4- to 5-fold dilution at intervals of 3 to 4 days.
(2) Purification of GPIIb/IIIa from HEL cells
GPIIb/IIIa was purified by a modification of the method of L. A. Fitzgerald et al. [J. Biol. Chem., 262, 3936 (1987)] as follows: All purification was conducted at room temperature, unless otherwise stated. At 7 days of cultivation, cells were collected from the HEL cell culture broth (cell suspension) by centrifugation (1,000 ×g, 10 minutes, 4° C.). After washing with 20 mM Tris-HCl (pH 7.5) containing 1 mM EDTA and 150 mM NaCl, the cells were suspended in a solubilizing buffer (20 mM Tris-HCl, 150 mM NaCl, 1% Triton X-100, 1 mM MgCl2, 1 mM CaCl2, 0.1 mM (p-amidinophenyl)methanesulfonyl fluoride (hereinafter referred to as APMSF), 10 nM leupeptin, 0.02% NaN3, pH 7.4), followed by gentle stirring at 4° C. for 30 minutes, to solubilize the GPIIb/IIIa. The suspension was centrifuged (100,000 ×g, 1 hour) at 4° C., and the cell debris removed, to yield a cell extract. The cell extract was passed through a Heparin-Sepharose CL-6B column (Pharmacia LKB) and a DEAE-Toyopearl 650M column (Tosoh), both previously equilibrated with a column buffer (20 mM Tris-HCl, 150 mM NaCl, 0.1% Triton X-100, 1 mM MgCl2, 1 mM CaCl2, 0.1 mM APMSF, 1 nM leupeptin, 0.05% NaN3, pH 7.4). The effluent was applied to a ConA-Sepharose column (Pharmacia LKB), previously equilibrated with the same column buffer as above, to adsorb the GPIIb/IIIa, followed by elution with the same column buffer but containing 0.5M methyl α-D-mannopyranoside. The eluted fraction was concentrated at 4° C. using an ultrafiltration apparatus (Amicon Corporation the fraction's molecular weight of 10,000), after which it was subjected to gel filtration through a Sephacryl S-300 column (Pharmacia LKB), previously equilibrated with the same column buffer, to yield a purified standard sample.
(3) Biotinization of human fibrinogen
Conducted by the method of I. F. Charo [I. F. Charo et al., J. Biol. Chem., 266, 1415 (1991)].
Human fibrinogen (Kabi Vitrum AB) was dissolved in PBS to 5 mg/ml and then dialyzed at 4° C. against 0.1M carbonate buffer (pH 8.2) containing 0.1M NaCl. After dialysis, insoluble substances were removed by centrifugation (100,000 ×g, 30 minutes), and the dialyzate was diluted to 1 mg/ml with the same buffer. To this dilution, sulfo-N-hydroxysuccinimidebiotin (Pierce Chemical Co.) was added to a final concentration of 0.2 mg/ml, followed by gentle mixing at room temperature for 30 minutes, to biotinize the fibrinogen. After completion of the reaction, the mixture was dialyzed against 0.05M Tris-HCl buffer (pH 7.4) containing 0.1M NaCl and 0.05% NaN3.
(4) Determination of inhibitory activity against fibrinogen binding
Conducted by a modification of the method of I. F. Charo [I. F. Charo et al., J. Biol. Chem., 266, 1415 (1991)] as follows: The purified GPIIb/IIIa was diluted to 1 μg/ml with buffer A (20 mM Tris-HCl, 150 mM NaCl, 1 mM CaCl2, 0.02% NaN3, pH 7.4). A 100 μl aliquot of this dilution was dispensed to a 96-well microplate (Maxisorp, produced by Nunc), and the plate kept standing at 4° C., to adsorb the GPIIb/IIIa to the microplate. Next, 150 μl of buffer B (35 mg/ml BSA, 50 mM Tris-HCl, 100 mM NaCl, 2 mM CaCl2, 0.02% NaN3, pH 7.4) was added, followed by 2 hours of blocking at 30° C. […]

T1 sequence (P08514 32-887 limits assumed): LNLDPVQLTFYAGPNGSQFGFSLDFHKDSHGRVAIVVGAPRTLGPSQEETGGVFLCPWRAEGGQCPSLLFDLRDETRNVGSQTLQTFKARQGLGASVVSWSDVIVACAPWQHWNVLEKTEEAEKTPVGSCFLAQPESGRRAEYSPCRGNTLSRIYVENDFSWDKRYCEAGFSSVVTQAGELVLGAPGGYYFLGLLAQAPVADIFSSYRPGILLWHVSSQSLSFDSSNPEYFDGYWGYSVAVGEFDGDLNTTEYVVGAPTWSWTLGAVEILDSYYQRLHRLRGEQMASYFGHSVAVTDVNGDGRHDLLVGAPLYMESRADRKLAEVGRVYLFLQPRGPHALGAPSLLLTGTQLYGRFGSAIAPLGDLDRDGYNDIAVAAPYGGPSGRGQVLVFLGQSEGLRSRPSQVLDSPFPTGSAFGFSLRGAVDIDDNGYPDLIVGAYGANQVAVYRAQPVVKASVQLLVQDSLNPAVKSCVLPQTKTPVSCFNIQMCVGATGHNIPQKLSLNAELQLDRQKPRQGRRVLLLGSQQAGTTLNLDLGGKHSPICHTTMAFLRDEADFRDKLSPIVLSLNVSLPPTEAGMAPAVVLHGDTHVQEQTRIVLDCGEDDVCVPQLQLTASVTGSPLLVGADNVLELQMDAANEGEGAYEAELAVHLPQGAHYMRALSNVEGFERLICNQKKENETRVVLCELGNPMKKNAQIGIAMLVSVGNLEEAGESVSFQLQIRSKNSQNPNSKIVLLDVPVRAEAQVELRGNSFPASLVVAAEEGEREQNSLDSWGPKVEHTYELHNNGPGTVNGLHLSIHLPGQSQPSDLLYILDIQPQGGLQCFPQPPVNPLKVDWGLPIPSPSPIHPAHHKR
T1 sequence (P08514 891-1039 limits assumed): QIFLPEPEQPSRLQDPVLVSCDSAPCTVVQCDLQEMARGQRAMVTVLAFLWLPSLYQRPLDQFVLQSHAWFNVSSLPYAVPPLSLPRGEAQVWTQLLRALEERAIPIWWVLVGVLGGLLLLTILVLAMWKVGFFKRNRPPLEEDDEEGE
T1 sequence (P05106 27-788): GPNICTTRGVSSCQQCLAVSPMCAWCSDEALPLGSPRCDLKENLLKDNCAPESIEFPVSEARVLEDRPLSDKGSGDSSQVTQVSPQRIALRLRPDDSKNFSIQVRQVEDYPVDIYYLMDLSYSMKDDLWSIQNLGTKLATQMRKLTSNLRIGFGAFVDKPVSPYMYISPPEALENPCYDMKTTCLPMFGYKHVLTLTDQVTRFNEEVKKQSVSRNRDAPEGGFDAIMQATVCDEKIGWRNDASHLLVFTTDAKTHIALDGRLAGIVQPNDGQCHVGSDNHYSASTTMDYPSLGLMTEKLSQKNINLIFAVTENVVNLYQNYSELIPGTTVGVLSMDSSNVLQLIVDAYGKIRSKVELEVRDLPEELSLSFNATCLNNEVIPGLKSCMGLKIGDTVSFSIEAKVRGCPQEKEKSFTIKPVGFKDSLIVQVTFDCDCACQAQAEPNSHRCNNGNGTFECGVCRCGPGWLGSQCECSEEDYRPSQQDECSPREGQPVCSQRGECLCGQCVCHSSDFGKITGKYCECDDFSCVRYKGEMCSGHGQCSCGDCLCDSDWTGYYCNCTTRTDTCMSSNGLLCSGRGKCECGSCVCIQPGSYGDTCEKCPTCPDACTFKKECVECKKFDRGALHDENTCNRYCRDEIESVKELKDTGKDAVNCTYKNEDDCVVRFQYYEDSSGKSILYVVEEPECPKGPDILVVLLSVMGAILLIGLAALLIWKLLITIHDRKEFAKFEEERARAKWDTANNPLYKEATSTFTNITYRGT

SMILES	inhibition at 10 µM (10^-5 M) [%]	inhibition at 1 µM (10^-6 M) [%]	GPIIb/IIIa Fibrinogen Binding Inhibitory Activity (10^-5 M) [%]	GPIIb/IIIa Fibrinogen Binding Inhibitory Activity (10^-6 M) [%]
CN1CCN(c2c(F)cc3c(=O)c(C(=O)O)cn(C)c3c2F)CC1 [Compound 1]	70.7	48.6	–	–
Cn1cc(C(=O)O)c(=O)c2cc(F)c(N3Cc4ccccc4C(N)C3)c(F)c21 (stereo not drawn) [Compound 2]	72.4	48.4	–	–
CCn1cc(C(=O)O)c(=O)c2cc(F)c(N3CCN(c4ccncc4)CC3)cc21 [Compound 3, 1-Ethyl-6-fluoro-7-[4-(4-pyridyl)piperazin-1-yl]-1,4-dihydro-4-oxoquinoline-3-carboxylic acid]	82.2	57.1	–	–
CCn1cc(C(=O)O)c(=O)c2cc(F)c(N3CCN(Cc4ccccn4)CC3)cc21 [Compound 4]	70.9	33	–	–
CCn1cc(C(=O)O)c(=O)c2cc(F)c(SC3CCN(C)CC3)cc21 [Compound 5]	60.3	26	–	–
CCn1cc(C(=O)O)c(=O)c2cc(F)c(N3CCN4CCCC4C3)c(F)c21 (stereo not drawn) [Compound 6]	83.3	39.3	–	–
CN1CCN(c2c(F)cc3c(=O)c(C(=O)O)cn(CCF)c3c2F)CC1 [Compound 7]	91	62.1	–	–
O=C(O)c1cn(CCF)c2c(F)c(N3CCN4CCCC4C3)c(F)cc2c1=O (stereo not drawn) [Compound 8]	79.3	53.1	–	–
O=C(O)c1cn(CCF)c2c(F)c(N3CCn4ccnc4C3)c(F)cc2c1=O [Compound 9]	69.5	43.9	–	–
O=C(O)c1cn(CCO)c2c(F)c(N3CCn4ccnc4C3)c(F)cc2c1=O [Compound 10, 1-(2-Hydroxyethyl)-6,8-difluoro-7-(5,6,7,8-tetrahydroimidazo[1,2-a]pyrazin-7-yl)-1,4-dihydro-4-oxoquinoline-3-carboxylic acid]	91.3	72.9	–	–
NC(=O)OCCn1cc(C(=O)O)c(=O)c2cc(F)c(N3CCNCC3)c(F)c21 [Compound 11, 1-(2-Carbamoyloxyethyl)-6,8-difluoro-7-(1-piperazinyl)1,4-dihydro-4-oxoquinoline-3-carboxylic acid]	96.8	84.3	–	–
CN(C)CCn1cc(C(=O)O)c(=O)c2cc(F)c(N3CCNCC3)cc21 [Compound 12]	79.1	65.1	–	–
CN(C)CCn1cc(C(=O)O)c(=O)c2cc(F)c(N3CCN(C)CC3)cc21 [Compound 13]	70.5	54.7	–	–
O=C(O)CCn1cc(C(=O)O)c(=O)c2cc(F)c(N3CCNCC3)c(F)c21 [Compound 14]	–	56.1	–	–
CC(=O)N1CC(n2cc(C(=O)O)c(=O)c3cc(F)c(N4CCN(C)CC4)c(F)c32)C1 [Compound 15]	60.5	33.9	–	–
O=C(O)c1cn(C2CC2)c2c(F)c(N3CCNCC3)c(F)cc2c1=O [Compound 22]	72.7	39.8	–	–

Results, then the compound that gave them:

inhibition at 10 µM (10^-5 M) [%]	inhibition at 1 µM (10^-6 M) [%]	GPIIb/IIIa Fibrinogen Binding Inhibitory Activity (10^-5 M) [%]	GPIIb/IIIa Fibrinogen Binding Inhibitory Activity (10^-6 M) [%]	SMILES
60.4	43.2	–	–	CN1CCN(c2c(F)cc3c(=O)c(C(=O)O)cn(C4CN(C)C4)c3c2F)CC1 [Compound 16]
47.3	17.1	–	–	CN1CCN(c2c(F)cc3c(=O)c(C(=O)O)cn(C4CC4)c3c2F)CC1 [Compound 17]
42.6	30.5	–	–	O=C(O)c1cn(C2CC2)c2c(F)c(N3CCn4ccnc4C3)c(F)cc2c1=O [Compound 18]
49.7	7	–	–	O=C(O)c1cn(C2CC2)c2c(F)c(SC3CCNCC3)c(F)cc2c1=O [Compound 19]
59.4	12	–	–	CNCCN(C)c1nc2c(cc1F)c(=O)c(C(=O)O)cn2C1CC1 [Compound 20]
69.9	31.3	–	–	CN(C)CCN(C)c1nc2c(cc1F)c(=O)c(C(=O)O)cn2C1CC1 [Compound 21]
72.3	36.2	–	–	CCNCC1CCN(c2c(F)cc3c(=O)c(C(=O)O)cn(C4CC4)c3c2F)C1 (stereo not drawn) [Compound 23]
50	24.9	–	–	CCN1CCCC1CNc1c(F)cc2c(=O)c(C(=O)O)cn(C3CC3)c2c1F (stereo not drawn) [Compound 24]
87.8	67.7	–	–	CN(C)CCOC1CCN(c2c(F)cc3c(=O)c(C(=O)O)cn(C4CC4)c3c2F)C1 (stereo not drawn) [Compound 25]
94.1	71.4	–	–	CN1CCN(C(=O)OC2CCN(c3c(F)cc4c(=O)c(C(=O)O)cn(C5CC5)c4c3F)C2)CC1 (stereo not drawn) [Compound 26]
78.4	42.6	–	–	CCNCc1cn2c(n1)CN(c1c(F)cc3c(=O)c(C(=O)O)cn(C4CC4)c3c1F)CC2 [Compound 27]
95.8	73.3	–	–	CN(C)Cc1cn2c(n1)CN(c1c(F)cc3c(=O)c(C(=O)O)cn(C4CC4)c3c1F)CC2 [Compound 28, 1-Cyclopropyl-6,8-difluoro-7-(2-dimethylaminomethyl-5,6,7,8-tetrahydroimidazo[1,2-a]pyrazin-7-yl)-1,4-dihydro-4-oxoquinoline-3-carboxylic acid]
68.7	38.4	–	–	Cc1cnc2n1CCN(c1c(F)cc3c(=O)c(C(=O)O)cn(C4CC4)c3c1F)C2 [Compound 29]
54.8	24.2	–	–	O=C(O)c1cn(C2CC2)c2c(F)c(N3CCn4cc(CN5CCOCC5)nc4C3)c(F)cc2c1=O [Compound 30]
73	39.3	–	–	O=C(O)c1cn(C2CC2)c2c(F)c(N3CCN4CCC[C@@H]4C3)c(F)cc2c1=O [Compound 31]
71.2	39.5	–	–	O=C(O)c1cn(C2CC2)c2cc(N3CCN4CCC[C@H]4C3)c(F)cc2c1=O [Compound 32]
–	–	68.3	33.6	O=C(O)c1cn(C2CC2)c2c(F)c(N3CCN4CCC[C@@H]4C3)c(F)cc2c1=O [Compound 33]
77	49.4	–	–	O=C(O)c1cn(C2CC2)c2c(F)c(N3CCc4ccccc4C3)c(F)cc2c1=O [Compound 34]
51.8	21.5	–	–	NC1CN(c2c(F)cc3c(=O)c(C(=O)O)cn(C4CC4)c3c2F)Cc2ccccc21 (stereo not drawn) [Compound 35]
56	36.3	–	–	O=C(O)c1cn(C2CC2)c2c(F)c(N3Cc4ccccc4C(CO)C3)c(F)cc2c1=O (stereo not drawn) [Compound 36]
60.1	32.5	–	–	NCC1CN(c2c(F)cc3c(=O)c(C(=O)O)cn(C4CC4)c3c2F)Cc2ccccc21 (stereo not drawn) [Compound 37]
50.8	31.9	–	–	NC1CCCN(c2c(F)cc3c(=O)c(C(=O)O)cn(C4CC4)c3c2F)C1 (stereo not drawn) [Compound 38]
